Reference: patent US9096581B2, “Fluoroethyl thiamine or salts thereof and application thereof in preparation of anticoccidial drugs” (GUANGZHOU ORIGMOL FEED-ADDITIVE CO., LTD, priority 2012, dated 2015)
Entries after “also recorded” stand apart in the source; their conditions may differ. Structures can show the parent of a compound that is named as a salt.

What was measured:
Format in all cases: in vivo
[1] = system: Eimeria tenella GD strains; assay: Comparison with other anticoccidial drugs in chickens infected with Eimeria tenella GD (Embodiment 3); set-up: oocyst value: scale not given here; conditions: for anticoccidial index (ACI) / number of oocysts in cecum / lesion value / survival rate / average weight gain / bloody feces scoring / oocyst value / relative weight gain rate: 125 ppm in feed; for number of oocysts in cecum / lesion value / average weight gain: 7th day; for lesion value: cecum, scale 0-40; for survival rate / average weight gain / bloody feces scoring: chickens; for bloody feces scoring: 5 days after infecting, score 0-4; for oocyst value: converted per Table 2; for relative weight gain rate: vs non-infected non-drug control
From the text: 1-day-old Lingnan yellow chickens, purchased from Poultry Research Unit, Bureau of Animal Husbandry, Guangdong Academy of Agricultural Sciences, bred under coccidium-free environment, and subjected to experiment after no coccidium oocyst is found in feces through microscopic examination when the chickens are 14 days old. Perfect compound feed for chickens: prepared by Huizhou Yuantai Feed Co. Ltd., and containing no antibacterial or anticoccidial additive.
Eimeria tenella GD strains, having no resistance to various anticoccidial drugs. Breeding and amplifying in one chicken before the experiment, collecting fresh oocysts, sporulating, and preserving at 4° C. for later use.
(§1) Weighing the 14-day-old experiment chickens one by one, rejecting emaciated chickens or overweighted chickens, selecting healthy chickens of which the individual body weight difference is within 20 g, and dividing into 6 groups with 30 chickens in each group. Groups 1 and 2 are respectively a non-drug-applied and non-coccidium-killed control group and a coccidium-infected and non-drug-applied control group, and Groups 3-6 are respectively added with different anticoccidial drugs according to Table 4. Feeding with feed containing different drugs on the day of experiment grouping, enabling the chickens to freely take in the feed, and feeding the chickens until the experiment ends.
(§2) Except the non-coccidium-infected and non-drug-applied control group, giving each experiment chicken in each experiment group with 2.5×10^5 eimeria tenella sporulated oocysts via the crop on next day of the grouping day. During experiment, observing and recording the spirit, appetite, bloody feces situation, death count and the like of the chickens every day. Performing bloody feces scoring on the chickens in each group 5 days after infecting. On the 7th day, respectively weighing all the chickens in each group, then autopsying them, observing cecum lesions and counting the oocysts in the cecum.
(§3) The evaluation standard is the same with Embodiment 2.

[2] = system: Eimeria tenella JM strains (amprolium-resistant); assay: Effect on amprolium-resistant coccidium strain in chickens (Embodiment 4); conditions: 125 ppm in feed; for number of oocysts in cecum / lesion value / the average weight gain: 7th day; for lesion value: cecum, scale 0-40; for survival rate / the average weight gain / bloody feces scoring: chickens; for bloody feces scoring: 5 days after infecting, score 0-4; for oocyst value: converted per Table 2; for relative weight gain rate: vs non-infected non-drug control
Protocol: (§4) 1-day-old Lingnan yellow chickens, purchased from Poultry Research Unit, Bureau of Animal Husbandry, Guangdong Academy of Agricultural Sciences, bred under coccidium-free environment, and subjected to grouping and experiment after no coccidium oocyst is found in feces through microscopic examination when the chickens are 14 days old.
Eimeria tenella JM strains, separated and purified from a chicken farm in Jiangmen, Guangdong, which are tested and identified to be amprolium-resistant coccidium strains. Breeding and amplifying in chickens before the experiment, collecting fresh eggs, sporulating, and preserving at 4° C. for later use.
as §1, with “4” for “6”, “3 and 4” for “3-6”, “fluoroethyl thiamine hydrochloride and amprolium.” for “different anticoccidial drugs according to Table 4.”, “grouping according to Table 6,” for “grouping,”
as §2, with “group with 1.0×10^5 eimeria tenella” for “group with 2.5×10^5 eimeria tenella”, “crop on the next day” for “crop on next day”
as §3

[3] = system: Eimeria necatrix GD strains; assay: Anticoccidial effect on Eimeria necatrix in chickens (Embodiment 7); conditions: 125 ppm in feed; for average weight gain / number of oocysts in feces: 7th day after infecting; for survival rate: chickens; for relative decrement rate of oocysts: vs infected non-drug control; for relative weight gain rate: vs non-infected non-drug control
From the text: as §4
Eimeria necatrix GD strains, having no resistance to various anticoccidial drugs. Breeding and amplifying in chickens before the experiment, collecting fresh oocysts, sporulating, and preserving at 4° C. for later use.
Weighing the 14-day-old experiment chickens one by one, rejecting emaciated chickens or overweighted chickens, selecting healthy chickens of which the individual body weight difference is within 20 g, and dividing to 4 groups with 30 chickens in each group. Groups 1 and 2 are respectively a non-drug-applied and non-coccidium-killed control group and a coccidium-infected and non-drug-applied control group, and Groups 3 and 4 are added with fluoroethyl thiamine hydrochloride or amprolium according to Table 12. Feeding with feed containing different drugs on the day of experiment grouping, enabling the chickens to freely take in the feed, and feeding the chickens until the experiment ends.
Except the non-coccidium-infected and non-drug-applied control group, giving each experiment chicken in each experiment group with 1×10^5 eimeria necatrix sporulated oocysts via the crop on the next day of the grouping day. During experiment, observing and recording the spirit, appetite, bloody feces situation, death count and the like of the chickens every day. On the 7th day after infecting, respectively weighing each group, calculating the relative weight gain rate, simultaneously collecting feces samples, and counting the number of oocysts per gram of feces.
The anticoccidial effect evaluation is the same with Embodiment 5.

Row | SMILES | anticoccidial index (ACI) [1] | number of oocysts in cecum [1] | lesion value [1] | survival rate [1] | average weight gain [1] | bloody feces scoring [1] | oocyst value [1] | relative weight gain rate [1] | anticoccidial index (ACI) [2] | effect on amprolium-resistant strain, in words [2] | number of oocysts in cecum [2] | lesion value [2] | survival rate [2] | the average weight gain [2] | bloody feces scoring [2] | oocyst value [2] | relative weight gain rate [2] | average weight gain [3] | number of oocysts in feces [3] | survival rate [3] | also measured
1 | CCCc1ncc(C[n+]2ccccc2C)c(N)n1 [amprolium, Amprolium, reference compound] | 191.2 | 0.566 ×10^6/chicken | 4 | 100% | 166.3 g/chicken | 0 | 1 | 96.2% | 93.5 | eimeria tenella JM strain has resistance to amprolium | 2.878 ×10^6/chicken | 28.4 | 60% | 135.6 g/chicken | 4 | 10 | 71.9% | 159.9 g | 3600 g⁻¹ | 100% | relative decrement rate of oocysts [3]: 73.3%; relative weight gain rate [3]: 86.2%
2 | CCc1ncc(C[n+]2csc(CCF)c2C)c(N)n1 [fluoroethyl thiamine hydrochloride, 3-[(4-amino-2-ethyl-5-pyrimidyl)-methylene]-5-(2-fluoroethyl)-4-methyl thiazole chloride hydrochloride] | 201.6 | 0 ×10^6/chicken | 0 | 100% | 175.6 g/chicken | 0 | 0 | 101.6% | 196.8 | can protect the experiment chickens from being infected by the strains | 0 ×10^6/chicken | 0 | 100% | 182.7 g/chicken | 0 | 0 | 96.8% | 172.5 g | 1900 g⁻¹ | 100% | comparison with the other anticoccidial drugs ([1]; 125 ppm in feed (maduramicin 5 ppm), hydrochloride): superior to amprolium and maduramicin in lesion and oocyst value; also recorded: superior to nicarbazin in weight gain; inhibition of eimeria necatrix, in words ([3]; hydrochloride): can effectively control infection of the eimeria necatrix; also recorded: superior to amprolium in eimeria necatrix inhibition; relative decrement rate of oocysts [3]: 85.9%; relative weight gain rate [3]: 92.9%
